In patent US11667602B2, “Compounds and their use” (AstraZeneca AB, priority 2020, dated 2023):
Converted amounts (≈) assume the structure as drawn.

How the values were obtained:
[1] = Human Plasma Protein Binding (Test B); type: in vitro ADME; conditions: fraction unbound (fu)
Experimental: Human Plasma Protein Binding (Test B)
The assay was conducted according to the Human Plasma Protein Binding Assay described in pages 167-170 of Wernevik, J. et al., “A Fully Integrated Assay Panel for Early Drug Metabolism and Pharmacokinetics Profiling”, Assay and Drug Development Technologies, 2020, 18(4), 157-179. Data are reported in Table 36 as fraction unbound (fu) (% free). Where the assay was run multiple times for the same compound, the arithmetic mean is reported.

[2] = Human Liver Microsomal Stability (Test C); type: in vitro ADME; conditions: human, liver microsomes
Experimental: Human Liver Microsomal Stability (Test C)
The assay was conducted according to the Human Liver Microsome Stability Assay described in pages 170-174 of Wernevik, J. et al., “A Fully Integrated Assay Panel for Early Drug Metabolism and Pharmacokinetics Profiling”, Assay and Drug Development Technologies, 2020, 18(4), 157-179. Data are reported in Table 36 as CLint (μl/min/mg protein). Where the assay was run multiple times for the same compound, the arithmetic mean is reported.

[3] = Rat Hepatocyte Stability (Test E); type: in vitro ADME; conditions: rat, hepatocytes, geometric mean if run multiple times
Experimental: Rat Hepatocyte Stability (Test E)
The assay was conducted according to the Rat Hepatocyte Stability Assay described in pages 170-174 of Wernevik, J. et al., “A Fully Integrated Assay Panel for Early Drug Metabolism and Pharmacokinetics Profiling”, Assay and Drug Development Technologies, 2020, 18(4), 157-179. Data are reported in Table 36 as mean Clint(μl/min/10^6 cells). Where the assay was run multiple times for the same compound, the geometric mean is reported.

Solubility (Test F) = type: physicochemical; conditions: arithmetic mean if run multiple times
Experimental: The assay was conducted according to the Solubility Assay described in pages 164-167 of Wernevik, J. et al., “A Fully Integrated Assay Panel for Early Drug Metabolism and Pharmacokinetics Profiling”, Assay and Drug Development Technologies, 2020, 18(4), 157-179. Data are reported in Table 36 as solubility ([…]. Where the assay was run multiple times for the same compound, the arithmetic mean is reported.

human RXFP1 = biological target: T1, human RXFP1 (Homo sapiens, UniProt Q9HBX9); test: RXFP1 Hu cAMP (Test A); type: cell-based; design: expressed in transfected cells; host or cells: Jump-In T-REx CHO-K1 cells (ThermoFisher), induced with 10 ng/ml doxycycline for 24 h; conditions: RXFP1 Hu cAMP; for EC50: read-out: Test A EC50
T1 sequence (Q9HBX9 1-757): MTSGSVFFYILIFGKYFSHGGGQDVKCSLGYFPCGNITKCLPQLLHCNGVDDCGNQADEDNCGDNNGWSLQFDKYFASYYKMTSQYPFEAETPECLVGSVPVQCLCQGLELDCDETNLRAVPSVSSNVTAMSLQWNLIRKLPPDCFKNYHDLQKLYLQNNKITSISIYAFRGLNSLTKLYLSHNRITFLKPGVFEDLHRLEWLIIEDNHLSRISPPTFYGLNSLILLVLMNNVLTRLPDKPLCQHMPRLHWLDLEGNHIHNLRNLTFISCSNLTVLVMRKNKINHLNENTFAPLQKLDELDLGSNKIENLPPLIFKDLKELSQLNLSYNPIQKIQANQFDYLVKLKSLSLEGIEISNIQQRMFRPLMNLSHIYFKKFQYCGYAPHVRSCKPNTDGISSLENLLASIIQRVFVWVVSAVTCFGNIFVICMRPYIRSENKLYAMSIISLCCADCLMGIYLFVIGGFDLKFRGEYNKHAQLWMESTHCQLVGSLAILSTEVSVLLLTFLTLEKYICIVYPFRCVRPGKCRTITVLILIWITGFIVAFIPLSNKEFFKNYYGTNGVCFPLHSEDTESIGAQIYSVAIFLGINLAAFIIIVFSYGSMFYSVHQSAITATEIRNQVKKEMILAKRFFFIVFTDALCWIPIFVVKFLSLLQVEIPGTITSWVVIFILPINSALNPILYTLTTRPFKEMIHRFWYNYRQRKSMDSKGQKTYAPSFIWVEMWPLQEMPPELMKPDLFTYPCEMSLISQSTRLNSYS
How it was run: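 Read-out is HTRF signal, inversely proportional to cAMP, converted to cAMP amount by standard curve. Stimulation occurred in inducible CHO-K1 cells expressing the human receptor with phosphodiesterases blocked by 0.5 mM IBMX.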

Structure (SMILES)	Test B Human Plasma Protein Binding (% free) [1] [% free]	microsomal CLint [2] [µL/min/mg]	hepatocyte CLint [3] [µL/min/1e6 cells]	solubility (Solubility (Test F)) [µM]	Test A Sinf (human RXFP1) [%]	EC50 (human RXFP1) [nM]
COc1cc(F)c(O[C@H]2CC[C@@H](C(=O)O)CC2)cc1C(=O)N[C@@H]1[C@H]2CC[C@H](C2)[C@@H]1C(=O)NC1CC(F)(F)C1 [Example 33, (1S,4s)-4-(5-(((1S,2R,3S,4R)-3-((3,3-Difluorocyclobutyl)carbamoyl)bicyclo[2.2.1]heptan-2-yl)carbamoyl)-2-fluoro-4-methoxyphenoxy)cyclohexane-1-carboxylic acid]	15	< 3	110	> 1000	88	> 5000
COc1cc(NC(=O)[C@H]2[C@@H]3CC[C@@H](C3)[C@H]2NC(=O)c2cc(O[C@H]3CC[C@@H](C(=O)O)CC3)c(F)cc2OC)cc(C(F)(F)F)c1 [Example 194]	0.53	31	24	530 (≈ 330 µg/mL)	99	470
COc1cc(F)c(O[C@H]2CC[C@H](NS(C)(=O)=O)CC2)cc1C(=O)N[C@@H]1[C@H]2CC[C@H](C2)[C@@H]1C(=O)Nc1cccc(S(=O)(=O)C(F)(F)F)c1 [Example 460, (1R,2S,3R,4S)-3-(4-fluoro-2-methoxy-5-(((1r,4R)-4-(methylsulfonamido)cyclohexyl)oxy)benzamido)-N-(3-((trifluoromethyl)sulfonyl)phenyl)bicyclo[2.2.1]heptane-2-carboxamide]	0.32	300	47	2 (≈ 1.41 µg/mL)	103	370
COc1cc(F)c(OCCCCC(=O)O)cc1C(=O)N[C@H]1[C@@H](C(=O)Nc2cccc(S(=O)(=O)C(F)(F)F)c2)[C@@H]2C=C[C@H]1C2 (racemic) [Example 451]	0.93	15	68	700 (≈ 440 µg/mL)	127	310
COc1cc(F)c(-c2ccc3c(c2)OC[C@@H]3CC(=O)O)cc1C(=O)N[C@@H]1[C@H]2CC[C@H](C2)[C@@H]1C(=O)Nc1cccc(S(=O)(=O)C(F)(F)F)c1 [Example 254]	0.30	31	12	> 1000	114	34
COc1cc(F)c(O[C@H]2CC[C@@H](C(=O)O)CC2)cc1C(=O)N[C@@H]1[C@H]2CC[C@H](C2)[C@@H]1C(=O)Nc1cc(C(F)(F)F)ccn1 [Example 14, (1S,4s)-4-(2-Fluoro-4-methoxy-5-(((1S,2R,3S,4R)-3-((4-(trifluoromethyl)pyridin-2-yl)carbamoyl)bicyclo[2.2.1]heptan-2-yl)carbamoyl)phenoxy)cyclohexane-1-carboxylic acid]	1.8	18	27	770 (≈ 457 µg/mL)	83	510
COc1cc(F)c(O[C@H]2CC[C@@H](C(=O)O)CC2)cc1C(=O)N[C@@H]1[C@H]2CC[C@H](C2)[C@@H]1C(=O)NCCC1CC1 [Example 176]	9.3	8	120	210 (≈ 108 µg/mL)	75	> 4300
COc1cc(C#N)c(O[C@H]2CC[C@@](C)(C(=O)O)CC2)cc1C(=O)N[C@@H]1[C@H]2CC[C@H](C2)[C@@H]1C(=O)NC1(C2CC2)CC1 [Example 112]	16	6.8	17	830 (≈ 456 µg/mL)	95	470
COc1cc(C#N)c(O[C@H]2CC[C@@](C)(C(=O)O)CC2)cc1C(=O)N[C@@H]1[C@H]2CC[C@H](C2)[C@@H]1C(=O)NCC1(CO)CCCC1 [Example 109]	17	11	26	810 (≈ 471 µg/mL)	103	250
COc1cc(C#N)c(O[C@H]2CC[C@@](C)(C(=O)O)CC2)cc1C(=O)N[C@@H]1[C@H]2CC[C@H](C2)[C@@H]1C(=O)N[C@H]1C[C@@H](C)C1 [Example 73]	12	11	18	850 (≈ 457 µg/mL)	114	220
COc1cc(F)c(-c2ccc(C(=O)O)cc2)cc1C(=O)N[C@@H]1[C@H]2CC[C@H](C2)[C@@H]1C(=O)Nc1cccc(S(F)(F)(F)(F)F)c1 [Example 209, 2′-Fluoro-4′-methoxy-5′-(((1S,2R,3S,4R)-3-((3-(pentafluoro-λ6-sulfaneyl)phenyl)carbamoyl)bicyclo[2.2.1]heptan-2-yl)carbamoyl)-[1,1′-biphenyl]-4-carboxylic acid]	0.10	21	23	54 (≈ 33.9 µg/mL)	101	88
COc1cc(F)c(O[C@H]2CC[C@@H](C(=O)O)CC2)cc1C(=O)N[C@@H]1[C@H]2CC[C@H](C2)[C@@H]1C(=O)Nc1cc(C(F)(F)F)ncn1 [Example 31]	3.7	18	13	940 (≈ 559 µg/mL)	81	750
COc1cc(C#N)c(O[C@H]2CC[C@@](C)(C(=O)O)CC2)cc1C(=O)N[C@@H]1[C@H]2CC[C@H](C2)[C@@H]1C(=O)NCC(C)(F)F [Example 96]	26	< 3	24	890 (≈ 487 µg/mL)	97	440
COc1cc(C#N)c(O[C@H]2CC[C@@](C)(C(=O)O)CC2)cc1C(=O)N[C@@H]1[C@H]2CC[C@H](C2)[C@@H]1C(=O)NCC1(F)CCOCC1 [Example 110]	44	< 3	19	950 (≈ 556 µg/mL)	102	740
